# According to patent US20100317729A1 (GW Pharma Limited, priority 2007, published 2010):
# pKd: −log10 of the molar value.
# Tests used:
# CB1 receptor [1] = target: T1, CB1 receptor (Mus musculus, UniProt P47746); assay: [35S]GTPγS binding assay, mouse brain membranes; format: biochemical
# T1 construct: membranes prepared from healthy brain tissue, which is densely populated with CB1 but not CB2 receptors; from tissue; host or cells: mouse brain membranes
# Description: (§1) Nonspecific binding was measured in the presence of 30 μM GTPγS.
# The concentrations of [^35S]GTPγS and GDP present in the assay varied depending on whether the assay was conducted with mouse brain or transfected cell membranes.
# Additionally, mouse brain membranes were preincubated for 30 minutes at 30° C. with 0.5 U ml^−1 adenosine deaminase to remove endogenous adenosine.
# (§2) The apparent dissociation constant (KB) values for antagonism of agonists by THCV in the vas deferens or [^35S]GTPγS binding assay have been calculated by Schild analysis from the concentration ratio, defined as the concentration of an agonist that elicits a response of a particular size in the presence of a competitive reversible antagonist at a concentration, B, divided by the concentration of the same agonist that produces an identical response in the absence of the antagonist.
# (§3) Mean values have been compared using Student's two-tailed t-test for unpaired data or one-way analysis of variance (ANOVA) followed by Dunnett's test (GraphPad Prism). A P-value <0.05 was considered to be significant.
# hCB2 receptors = target: T2, hCB2 receptors (Homo sapiens, UniProt P34972); assay: [35S]GTPγS binding assay, CHO-hCB2 cell membranes; format: biochemical; conditions: for KB-value times less than Ki-value: CHO cell membranes, KB ([35S]GTPγS) versus Ki ([3H]CP55940 displacement)
# T2 construct: expressed in transfected cells; host or cells: CHO cells
# Description: as §1
# The concentrations of [^35S]GTPγS and GDP present in the assay varied depending on whether the assay was conducted with mouse brain or transfected cell membranes. When the assay was conducted with mouse brain membranes, 0.1 nM [^35S]GTPγS and 30 μM GDP were present, whereas the corresponding concentrations present when the assay was conducted with transfected cell membranes were 1 nM and 320 μM respectively.
# Additionally, mouse brain membranes were preincubated for 30 minutes at 30° C. with 0.5 U ml^−1 adenosine deaminase to remove endogenous adenosine. Agonists and antagonists were stored as a stock solution of 1 or 10 mM in DMSO, the vehicle concentration in all assay tubes being 0.11% DMSO.
# Net agonist-stimulated [^35S]GTPγS binding values were calculated by subtracting basal binding values (obtained in the absence of agonist) from agonist-stimulated values (obtained in the presence of agonist) as detailed elsewhere (Ross et al., 1999a).
# as §2, §3
# vas deferens = assay: Electrically-evoked twitch response of the vas deferens; conditions: at concentrations that antagonise cannabinoids
# Text: Inhibition of the electrically-evoked twitch response of the vas deferens has been expressed in percentage terms and this has been calculated by comparing the amplitude of the twitch response after each addition of a twitch inhibitor with its amplitude immediately before the first addition of the inhibitor. Contractile responses to phenylephrine and β,γ-methylene-ATP have been expressed as increases in tension (g).
# as §2
# [2] = clinical study, at least some of the patients; cited from earlier work
# CB1 receptor [3] = target: T1, CB1 receptor; assay: Radioligand displacement assay, mouse brain membranes; format: binding
# Description: Binding was initiated by the addition of either the brain membranes (33 μg protein per tube) or the transfected hCB2 cells (25 μg protein per tube).
# All assays were performed at 37° C. for 60 min before termination by addition of ice-cold wash buffer (50 mM Tris buffer, 1 mg ml^−1 bovine serum albumin, pH 7.4) and vacuum filtration using a 24-well sampling manifold and GF/B filters that had been soaked in wash buffer at 4° C. for at least 24 h.
# Each reaction tube was washed six times with a 1.2 ml aliquot of wash buffer. The filters were oven-dried for 60 min and then placed in 5 ml of scintillation fluid. Radioactivity was quantified by liquid scintillation spectrometry.
# Specific binding was defined as the difference between the binding that occurred in the presence and absence of 1 μM unlabelled CP55940.
# Values are expressed as means and variability as s.e.mean or as 95% confidence limits.
# T1 sequence (P47746 whole entry): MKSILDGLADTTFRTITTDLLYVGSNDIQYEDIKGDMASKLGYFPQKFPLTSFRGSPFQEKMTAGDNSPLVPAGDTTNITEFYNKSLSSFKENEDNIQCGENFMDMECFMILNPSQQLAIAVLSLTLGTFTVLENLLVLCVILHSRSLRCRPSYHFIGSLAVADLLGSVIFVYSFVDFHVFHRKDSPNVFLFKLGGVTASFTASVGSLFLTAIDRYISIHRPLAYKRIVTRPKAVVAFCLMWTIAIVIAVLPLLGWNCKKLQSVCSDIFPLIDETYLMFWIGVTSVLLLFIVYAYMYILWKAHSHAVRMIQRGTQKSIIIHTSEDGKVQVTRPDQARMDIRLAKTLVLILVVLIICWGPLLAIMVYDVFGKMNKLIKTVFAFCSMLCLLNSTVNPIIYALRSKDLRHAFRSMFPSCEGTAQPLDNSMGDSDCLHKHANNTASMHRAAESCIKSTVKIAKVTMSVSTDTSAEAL
# T2 sequence (P34972 whole entry): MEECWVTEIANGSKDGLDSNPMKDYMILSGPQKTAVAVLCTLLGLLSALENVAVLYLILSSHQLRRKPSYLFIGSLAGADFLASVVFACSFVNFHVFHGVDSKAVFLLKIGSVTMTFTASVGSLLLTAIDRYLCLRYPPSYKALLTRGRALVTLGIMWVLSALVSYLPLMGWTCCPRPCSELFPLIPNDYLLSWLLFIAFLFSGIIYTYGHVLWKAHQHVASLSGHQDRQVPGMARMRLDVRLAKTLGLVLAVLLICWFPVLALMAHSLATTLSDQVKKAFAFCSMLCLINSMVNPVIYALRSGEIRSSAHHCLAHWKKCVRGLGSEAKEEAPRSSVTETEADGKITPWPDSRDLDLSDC
compound,measurement,setting,value
"C=C(C)[C@@H]1CCC(C)=C[C@H]1c1c(O)cc(CCCCC)cc1O [CBD, cannabidiol]",inhibitory effect on [35S]GTPγS binding compared with SR141716A,"CB1 receptor [1]; 10 μM, both compounds, mouse brain membrane",greatly exceeded that of SR141716A
same,inhibition of [35S]GTPγS binding to the mouse brain membrane,CB1 receptor [1]; compound alone at 1 and 10 μM,significant inhibition
same,KB-value times less than Ki-value,hCB2 receptors,65 times
"CCCc1cc(O)c2c(c1)OC(C)(C)[C@@H]1CCC(C)=C[C@@H]21 [THCV, tetrahydrocannabidivarin]",effect by itself on the ability of [35S]GTPγS to bind,"CB1 receptor [1]; mouse brain membranes, at concentrations that antagonise cannabinoids",did not affect
same,effect by itself on the ability of [35S]GTPγS to bind,"hCB2 receptors; CHO-hCB2 cell membranes, at concentrations that antagonise cannabinoids",did not affect
same,effect by itself on the amplitude of the electrically-evoked contractions,vas deferens,did not affect
Cc1c(C(=O)NN2CCCCC2)nn(-c2ccc(Cl)cc2Cl)c1-c1ccc(Cl)cc1 [SR141716A],depression in patients enrolled in the trials,[2],significant increase in depression
CCCCCCC(C)(C)c1ccc([C@@H]2C[C@H](O)CC[C@H]2CCCO)c(O)c1 [[^3H]CP55940],pKd,CB1 receptor [3],8.64
SR144528 [reference compound],KB-value times less than Ki-value,hCB2 receptors,15 times
